The results in this text go back to patent US7063966B2, “Chimeric G protein coupled receptors” (SRI International, priority 2001, dated 2006).

Common to all, as to type: cell-based
Assay [1] has as its target T1, Edg1/3(i3ct) (Homo sapiens, UniProt P21453, DEL241-247/F237N/K239N/K250R/K256R/L235V/L252M/N315S/R231S/R234K/R238H/T230S/T236A).
T1 construct: DNA encoding the full length Edg 1/3(i3ct) chimera was then produced in a tertiary PCR reaction; expressed in transfected cells
The experiment in a line: Dose response of intracellular calcium mobilization (FLIPR) in HTC4 cells expressing chimeric Edg1/3(i3ct). A general note: A change in cytosolic calcium serves as a functional read-out for many receptors and channels.

For assay [2], the target named is T1, Edg1/3(i3ct). Nature of the assay: Intracellular calcium mobilization (FLIPR) in HTC4 cells expressing Edg1/3(i3ct), single concentration. The settings on record: 100 nM S1P, FIG. 2. The procedure:
(§1) Media from GP-293 cells was collected and filtered through a […] PES syringe filter to remove cell debris. Polybrene (hexadimethrine bromide, Sigma) was added to each virus laden supernatant to a final concentration of […]. After removing the culture medium from the target cells, the virus-laden medium was used to overlay the host cell line HTC4 (rat hepatoma cell line; from Ed Goetzl, UCSF). Following infection, cells were incubated for 18–24 hours. Cells resistant to antibiotic (Geneticin, G418, […], Sigma) were selected. Clonal populations were selected from the pooled stable cells using a standard limiting dilution technique (adapted from “Antibodies: A Laboratory Manual”; 1988, Harlow, E. and Lane, D., Cold Spring Harbor Laboratory, New York).
(§2) HTC4 rat hepatoma cells stably transfected with Edg 1, Edg 1/3(ct), Edg1/3(i3ct) or Edg1/3(i2i3ct) according to Example 6.7 were plated on 384-well plates and loaded with a calcium dye loading kit (Molecular Devices, Sunnyvale, Calif.) for 1 hour at room temperature. Cells were then placed on FLIPR^384 (Molecular Devices, Sunnyvale, Calif.) and excited by an argon laser at 488 nm. In this assay, fluorescence changes over basal levels indicate an increase in intracellular calcium. In FIG. 2, basal fluorescence is at 0 (arbitrary units). […]

The target of another assay is T2, Edg 1/3(ct) (Homo sapiens, UniProt P21453, N315S).
T2 construct: DNA encoding the full length Edg 1/3(ct) chimera was produced in a secondary PCR reaction; expressed in transfected cells
T2 sequence (P21453 with tags, fused parts or gaps N315S): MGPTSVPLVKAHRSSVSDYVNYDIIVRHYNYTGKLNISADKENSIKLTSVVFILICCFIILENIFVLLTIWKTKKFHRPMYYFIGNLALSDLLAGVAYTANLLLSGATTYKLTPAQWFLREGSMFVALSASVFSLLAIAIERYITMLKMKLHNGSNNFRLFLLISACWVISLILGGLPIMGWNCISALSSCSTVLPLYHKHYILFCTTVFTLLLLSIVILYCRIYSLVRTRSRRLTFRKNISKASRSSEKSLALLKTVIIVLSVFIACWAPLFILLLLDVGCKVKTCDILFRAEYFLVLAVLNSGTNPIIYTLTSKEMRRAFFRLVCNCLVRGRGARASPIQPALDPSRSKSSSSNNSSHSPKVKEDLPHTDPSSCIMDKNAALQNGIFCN
The experiment in a line: Intracellular calcium mobilization (FLIPR) in HTC4 cells expressing Edg 1/3(ct). The settings on record: 100 nM S1P, FIG. 4. The procedure:
as §1, §2

The target in another assay is T3, Edg8/4(ct) (Homo sapiens, UniProt Q9H228).
T3 construct: DNA encoding the full length Edg 8/4(ct) chimera was produced in a secondary PCR reaction; expressed in transfected cells
T3 sequence (Q9H228 with tags, fused parts or gaps): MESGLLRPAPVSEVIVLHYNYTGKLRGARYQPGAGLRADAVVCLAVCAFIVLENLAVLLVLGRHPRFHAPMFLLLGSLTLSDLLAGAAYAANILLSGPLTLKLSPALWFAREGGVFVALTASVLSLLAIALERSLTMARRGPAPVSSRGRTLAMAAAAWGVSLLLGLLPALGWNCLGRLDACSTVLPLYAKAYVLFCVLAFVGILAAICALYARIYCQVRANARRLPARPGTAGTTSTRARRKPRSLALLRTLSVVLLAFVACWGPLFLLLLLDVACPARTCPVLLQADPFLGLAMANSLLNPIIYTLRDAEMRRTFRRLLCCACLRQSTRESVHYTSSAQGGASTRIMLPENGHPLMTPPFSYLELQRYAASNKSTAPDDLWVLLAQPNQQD
The experiment in a line: Intracellular calcium mobilization (FLIPR) in HTC4 cells expressing Edg8/4(ct). The settings on record: 100 nM S1P, FIG. 5. On the procedure: as §1
(§3) HTC4 rat hepatoma cells stably transfected with Edg5/3(i3ct) and Edg8/4(ct) according to Example 6.7 were plated on 384-well plates and loaded with a calcium dye loading kit (Molecular Devices, Sunnyvale, Calif.) for 1 hour at room temperature. Cells were then placed on FLIPR^384 (Molecular Devices, Sunnyvale, Calif.) and excited by an argon laser at 488 nm. In this assay, fluorescence changes over basal levels indicate an increase in intracellular calcium. […] The cells were contacted with 100 nM of the Edg 5 and Edg 8 agonist sphingosine-1-phosphate (S1P) 50 seconds after the start of the assay.

A further assay addresses T4, Edg1/3(i2i3ct) (Homo sapiens, UniProt P21453, DEL241-247/F158H/F237N/G154A/H152Y/I144L/K150R/K239N/K250R/K256R/L147I/L151P/L235V/L252M/N153D/N156K/N157R/N315S/R231S/R234K/R238H/S155N/T230S/T236A/Y143H).
T4 construct: DNA encoding the full length Edg 1/3(i2i3ct) chimera was then produced in a tertiary PCR reaction; expressed in transfected cells
Nature of the assay: Intracellular calcium mobilization (FLIPR) in HTC4 cells expressing Edg1/3(i2i3ct). The following applies: 100 nM S1P, FIG. 2. The procedure:
as §1, §2

The next assay concerns the target T5, Edg5/3(i3ct) (Homo sapiens, UniProt O95136, A221R/A225S/D222K/F113S/H220S/INS224NHNN/K233R/L229M/M223V/P226E/Q227R/R217K/T228S).
T5 construct: DNA encoding the full length Edg 5/3(i3ct) chimera was then produced in a tertiary PCR reaction; expressed in transfected cells
The experiment in a line: Intracellular calcium mobilization (FLIPR) in HTC4 cells expressing Edg5/3(i3ct). The following applies: 100 nM S1P, FIG. 5. On the procedure:
as §1, §3

For the next assay, the target named is Edg 1 (Homo sapiens, UniProt P21453). Nature of the assay: Intracellular calcium mobilization (FLIPR) in HTC4 cells expressing Edg 1. The settings on record: 100 nM S1P, FIG. 2. The procedure:
as §1, §2

Like-named read-outs stand apart in the source and are kept apart here.

T1 sequence (P21453 with tags, fused parts or gaps with the stated changes): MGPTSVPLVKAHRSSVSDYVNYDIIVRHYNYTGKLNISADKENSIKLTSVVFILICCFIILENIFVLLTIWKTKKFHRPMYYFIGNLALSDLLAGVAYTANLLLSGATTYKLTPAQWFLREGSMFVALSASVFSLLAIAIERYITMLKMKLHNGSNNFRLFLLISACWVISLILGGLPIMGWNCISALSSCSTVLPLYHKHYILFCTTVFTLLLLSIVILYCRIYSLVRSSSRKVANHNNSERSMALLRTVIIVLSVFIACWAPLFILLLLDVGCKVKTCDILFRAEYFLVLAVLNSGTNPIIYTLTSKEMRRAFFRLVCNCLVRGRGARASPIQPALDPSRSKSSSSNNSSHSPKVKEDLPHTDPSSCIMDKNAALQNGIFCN
T4 sequence (P21453 with tags, fused parts or gaps with the stated changes): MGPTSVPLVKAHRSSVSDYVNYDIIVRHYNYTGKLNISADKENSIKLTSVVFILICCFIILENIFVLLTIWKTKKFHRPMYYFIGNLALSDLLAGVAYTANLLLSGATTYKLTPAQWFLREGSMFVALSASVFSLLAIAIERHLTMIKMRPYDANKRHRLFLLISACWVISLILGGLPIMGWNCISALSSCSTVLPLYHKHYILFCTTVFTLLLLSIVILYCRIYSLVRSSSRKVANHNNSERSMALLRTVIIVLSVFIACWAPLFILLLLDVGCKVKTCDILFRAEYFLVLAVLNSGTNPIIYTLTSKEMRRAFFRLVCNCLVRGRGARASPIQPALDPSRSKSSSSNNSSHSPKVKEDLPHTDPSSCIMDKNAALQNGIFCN
Sequence of Edg 1 (P21453 whole entry): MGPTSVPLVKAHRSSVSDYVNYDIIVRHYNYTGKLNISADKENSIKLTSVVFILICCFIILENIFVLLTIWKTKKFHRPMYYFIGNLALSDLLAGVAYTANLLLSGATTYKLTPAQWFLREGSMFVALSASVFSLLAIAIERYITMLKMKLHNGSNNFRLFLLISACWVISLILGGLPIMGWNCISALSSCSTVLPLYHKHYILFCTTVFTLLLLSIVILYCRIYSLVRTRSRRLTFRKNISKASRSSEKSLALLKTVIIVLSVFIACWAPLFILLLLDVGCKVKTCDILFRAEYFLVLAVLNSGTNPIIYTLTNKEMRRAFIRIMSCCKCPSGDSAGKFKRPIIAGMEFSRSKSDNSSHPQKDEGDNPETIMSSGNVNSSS
T5 sequence (O95136 with tags, fused parts or gaps with the stated changes): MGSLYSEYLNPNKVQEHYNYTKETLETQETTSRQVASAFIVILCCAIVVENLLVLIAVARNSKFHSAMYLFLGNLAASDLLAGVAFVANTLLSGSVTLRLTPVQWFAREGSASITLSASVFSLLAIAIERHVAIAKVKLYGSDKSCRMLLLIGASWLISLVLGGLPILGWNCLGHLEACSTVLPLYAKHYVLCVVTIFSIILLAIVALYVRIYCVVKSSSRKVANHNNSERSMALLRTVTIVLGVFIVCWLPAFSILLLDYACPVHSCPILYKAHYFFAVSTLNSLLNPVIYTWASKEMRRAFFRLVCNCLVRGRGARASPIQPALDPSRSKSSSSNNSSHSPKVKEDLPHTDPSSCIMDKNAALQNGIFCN

Broadly, the EC50 is the concentration that produces a half-maximal response. In the case of `CCCCCCCCCCCCCCC[C@@H](O)[C@@H](N)COP(=O)(O)O` [dihydro S1P, dihydro sphingosine-1-phosphate], the EC50 at Edg1/3(i3ct) [1] (HTC4 rat hepatoma cells stably transfected with Edg1/3(i3ct), FIG. 3, read-out: EC50 of intracellular calcium mobilization) was roughly 10 nM.
Regarding `CCCCCCCCCCCCC/C=C/[C@@H](O)[C@@H](N)COP(=O)(O)O` [S1P, sphingosine-1-phosphate], the “change in intracellular calcium” value at Edg1/3(i3ct) [2] is recorded as “significant change in intracellular calcium”; at Edg1/3(i2i3ct) it was “significant change in intracellular calcium”; at Edg 1, “no change in intracellular calcium”. Besides, the intracellular calcium mobilization entry was “functional, although not as robust as Edg1/3(i3ct) or Edg1/3(i2i3ct)” at Edg 1/3(ct); “mobilize intracellular calcium” on Edg8/4(ct); “mobilize intracellular calcium” on Edg5/3(i3ct). The EC50 on Edg1/3(i3ct) [1] is roughly 10 nM.
